In article PMC4886280 (The Journal of General Physiology, 2016):

Target: T1, P2X7 (Homo sapiens, UniProt Q99572)
T1 sequence (Q99572 1-595): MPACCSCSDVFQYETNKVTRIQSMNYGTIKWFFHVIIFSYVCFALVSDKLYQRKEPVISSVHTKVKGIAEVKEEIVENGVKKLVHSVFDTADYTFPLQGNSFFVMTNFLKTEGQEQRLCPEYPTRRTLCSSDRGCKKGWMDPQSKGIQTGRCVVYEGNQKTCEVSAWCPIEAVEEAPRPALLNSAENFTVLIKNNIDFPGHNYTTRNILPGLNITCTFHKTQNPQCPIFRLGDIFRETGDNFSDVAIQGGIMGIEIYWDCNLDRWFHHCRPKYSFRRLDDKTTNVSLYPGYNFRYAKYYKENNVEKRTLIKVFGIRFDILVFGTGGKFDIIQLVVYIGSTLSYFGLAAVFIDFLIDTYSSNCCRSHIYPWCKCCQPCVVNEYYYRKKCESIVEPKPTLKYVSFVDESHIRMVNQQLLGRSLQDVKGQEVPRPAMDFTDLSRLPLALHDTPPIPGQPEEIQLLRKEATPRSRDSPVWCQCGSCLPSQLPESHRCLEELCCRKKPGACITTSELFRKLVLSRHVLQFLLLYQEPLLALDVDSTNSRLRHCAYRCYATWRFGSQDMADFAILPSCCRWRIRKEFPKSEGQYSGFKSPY
Assay: whole-cell patch clamp, ATP concentration-response in low-DIC bath
Assay type: cell-based

Compound `Nc1ncnc2c1ncn2[C@@H]1O[C@H](COP(=O)(O)OP(=O)(O)OP(=O)(O)O)[C@@H](O)[C@H]1O` [ATP] has an EC50 of 339 ± 27 µM.
